Source: patent US9414587B2, “Solubilized magnolol analogs” (Cologne-Palmolive Company, priority 2011, dated 2016)
Blank lines part the entries; values can stand above or below the compound they belong to.

Format: physicochemical
Description: Each of the sorbitan esters is capable of solubilizing up to 100 g per liter of neat propyl magnolol or butyl magnolol. In certain embodiments, the amount of sorbitan ester is at least 10 times the weight of the propyl magnolol or butyl magnolol in the composition.
Polysorbate 80 is capable of solubilizing up to 50 g per liter of neat isopropyl magnolol or isobutyl magnolol. In certain embodiments, the amount of polysorbate 80 is at least 20 times the weight of the isopropyl magnolol or isobutyl magnolol in the composition. It was surprising that polysorbate 80 was able to solubilize these analogs. Isobutyl magnolol is not soluble in polysorbate 20, polysorbate 40, or polysorbate 85.
Polysorbate 20 is capable of solubilizing up to 100 g per liter of neat isopropyl magnolol. In certain embodiments, the amount of polysorbate 20 is at least 10 times the weight of the isopropyl magnolol in the composition. It was surprising that polysorbate 20 was able to solubilize these analogs. Isopropyl magnolol is only soluble up to 10 g per liter in polysorbate 40 or polysorbate 85.
It was surprising that these sorbitan esters were capable of solubilizing these analogs.

Structure (SMILES): CCCCc1ccc(O)c(-c2cc(CCCC)ccc2O)c1 [butyl magnolol, 5,5′-di-n-butylbiphenyl-2,2′-diol]
- amount of neat analog that the sorbitan ester is capable of solubilizing: up to 100 g per liter

- amount of neat analog that polysorbate 80 is capable of solubilizing: up to 50 g per liter
- solubility in polysorbate 20 (in words): not soluble
- solubility in polysorbate 40 (in words): not soluble
Structure (SMILES): CC(C)Cc1ccc(O)c(-c2cc(CC(C)C)ccc2O)c1 [isobutyl magnolol, 5,5′-di-isobutylbiphenyl-2,2′-diol]

- amount of neat analog that polysorbate 20 is capable of solubilizing: up to 100 g per liter
- amount of neat analog that polysorbate 80 is capable of solubilizing: up to 50 g per liter
- solubility in polysorbate 40: up to 10 g per liter
- solubility in polysorbate 85: up to 10 g per liter
Structure (SMILES): CC(C)c1ccc(O)c(-c2cc(C(C)C)ccc2O)c1 [isopropyl magnolol, 5,5′-di-isopropylbiphenyl-2,2′-diol]

- amount of neat analog that the sorbitan ester is capable of solubilizing: up to 100 g per liter
Structure (SMILES): CCCc1ccc(O)c(-c2cc(CCC)ccc2O)c1 [propyl magnolol, 5,5′-di-n-propylbiphenyl-2,2′-diol]
